Laboratory results as given in the NIST ThermoML archive (doi:10.1016/j.jct.2008.09.002).
Numbers after ± are expanded uncertainties.

How the values were obtained:
[1] = molar heat capacity at constant pressure; settings: 101.33 kPa, Liquid, Small sample (50 mg) DSC
[2] = 101.33 kPa, Liquid; for speed of sound: Anton-Paar DSA48 sound analyzer; for mass density: Vibrating tube method
[3] = excess molar enthalpy (molar enthalpy of mixing); xn = mol fraction of the nth substance listed; settings: 303.15 K, 101.3 kPa, Liquid, Calvet calorimetry

CCCCn1cc[n+](C)c1.COS(=O)(=O)[O-] [1-butyl-3-methylimidazolium methyl sulfate]
Settings	mass density, [2] [kg/m3]	molar heat capacity at constant pressure, [1] [J/K/mol]	speed of sound, [2] [m/s]
293.15 K	1210.7 ± 1.3	413.7 ± 6.4	1670.9 ± 2
298.15 K	1207.4 ± 1.3	416.2 ± 6.4	1658.4 ± 2
303.15 K	1204.1 ± 1.3	418.5 ± 6.5	1646 ± 2
308.15 K	1200.8 ± 1.3	420.9 ± 6.5	1633.5 ± 2
313.15 K	1197.5 ± 1.3	423.3 ± 6.6	1621.1 ± 2
318.15 K	1194.2 ± 1.3	425.6 ± 6.6	1608.6 ± 2

CCCCn1cc[n+](C)c1.F[B-](F)(F)F [1-butyl-3-methylimidazolium tetrafluoroborate]
Settings	mass density, [2] [kg/m3]	molar heat capacity at constant pressure, [1] [J/K/mol]	speed of sound, [2] [m/s]
293.15 K	1207.6 ± 1.3	359.8 ± 5.6	1594.9 ± 2
298.15 K	1204.1 ± 1.3	363.1 ± 5.6	1576.1 ± 2
303.15 K	1200.5 ± 1.3	366.1 ± 5.7	1555.5 ± 2
308.15 K	1197 ± 1.3	368.7 ± 5.7	1543.9 ± 2
313.15 K	1193.4 ± 1.3	371 ± 5.7	1532.5 ± 2
318.15 K	1189.9 ± 1.3	372.9 ± 5.8	1521.2 ± 2

CCCCn1cc[n+](C)c1.O=S(=O)([O-])C(F)(F)F [1-butyl-3-methylimidazolium trifluoromethanesulfonate]
Settings	mass density, [2] [kg/m3]	molar heat capacity at constant pressure, [1] [J/K/mol]	speed of sound, [2] [m/s]
293.15 K	1301.6 ± 1.5	421.6 ± 6.5	1403.4 ± 2
298.15 K	1297.6 ± 1.5	424.1 ± 6.6	1392.1 ± 2
303.15 K	1293.7 ± 1.5	426.7 ± 6.6	1380.9 ± 2
308.15 K	1289.7 ± 1.5	429.5 ± 6.7	1369.8 ± 2
313.15 K	1285.8 ± 1.5	432.4 ± 6.7	1358.8 ± 2
318.15 K	1281.9 ± 1.5	435.5 ± 6.7	1348.1 ± 2

CCCC[n+]1cccc(C)c1.F[B-](F)(F)F [1-butyl-3-methylpyridinium tetrafluoroborate]
[2]
Settings	speed of sound [m/s]
293.15 K	1599.8 ± 2
298.15 K	1587 ± 2
303.15 K	1574.8 ± 2
308.15 K	1562.6 ± 2
313.15 K	1550.7 ± 2
318.15 K	1538.9 ± 2

CCOS(=O)(=O)[O-].CCn1cc[n+](C)c1 [1-ethyl-3-methylimidazolium ethyl sulfate]
Settings	mass density, [2] [kg/m3]	molar heat capacity at constant pressure, [1] [J/K/mol]	speed of sound, [2] [m/s]
293.15 K	1240.6 ± 1.4	392.2 ± 6.1	1691.4 ± 2
298.15 K	1237.2 ± 1.4	394.4 ± 6.1	1679 ± 2
303.15 K	1233.8 ± 1.4	396.8 ± 6.1	1666.6 ± 2
308.15 K	1230.4 ± 1.3	399.3 ± 6.2	1654 ± 2
313.15 K	1227 ± 1.3	402 ± 6.2	1641.6 ± 2
318.15 K	1223.7 ± 1.3	404.9 ± 6.3	1629.2 ± 2

CCn1cc[n+](C)c1.O=S(=O)([O-])C(F)(F)F [1-ethyl-3-methylimidazolium trifluoromethanesulfonate]
Settings	mass density, [2] [kg/m3]	molar heat capacity at constant pressure, [1] [J/K/mol]	speed of sound, [2] [m/s]
293.15 K	1389.5 ± 1.7	361.1 ± 5.6	1447 ± 2
298.15 K	1385.3 ± 1.7	363.2 ± 5.6	1435.6 ± 2
303.15 K	1381.1 ± 1.7	365.3 ± 5.7	1424.3 ± 2
308.15 K	1376.9 ± 1.7	367.4 ± 5.7	1413.1 ± 2
313.15 K	1372.7 ± 1.7	369.6 ± 5.7	1402.1 ± 2
318.15 K	1368.6 ± 1.7	371.8 ± 5.8	1391.1 ± 2

CCCCCCn1cc[n+](C)c1.F[B-](F)(F)F [1-hexyl-3-methylimidazolium tetrafluoroborate]
Settings	mass density, [2] [kg/m3]	molar heat capacity at constant pressure, [1] [J/K/mol]	speed of sound, [2] [m/s]
293.15 K	1148.8 ± 1.2	425.1 ± 6.6	1532.7 ± 2
298.15 K	1145.3 ± 1.1	427.8 ± 6.6	1519.5 ± 2
303.15 K	1141.8 ± 1.1	430.4 ± 6.7	1506.9 ± 2
308.15 K	1138.4 ± 1.1	433 ± 6.7	1494.5 ± 2
313.15 K	1135 ± 1.1	435.5 ± 6.7	1482.3 ± 2
318.15 K	1131.6 ± 1.1	438.1 ± 6.8	1470.5 ± 2

C[N+](=O)[O-] [nitromethane]
Settings	mass density, [2] [kg/m3]	molar heat capacity at constant pressure, [1] [J/K/mol]	speed of sound, [2] [m/s]
293.15 K	1140.2 ± 0.7	106.6 ± 1.7	1339.6 ± 1.5
298.15 K	1133.4 ± 0.7	106.9 ± 1.7	1320.1 ± 1.5
303.15 K	1126.6 ± 0.7	107.3 ± 1.7	1300.5 ± 1.5
308.15 K	1119.7 ± 0.6	107.7 ± 1.7	1280.7 ± 1.5
313.15 K	1112.9 ± 0.6	108.2 ± 1.7	1261.1 ± 1.5
318.15 K	1106 ± 0.6	108.6 ± 1.7	1241.6 ± 1.5

C[N+](=O)[O-] [nitromethane] + CCCC[n+]1cccc(C)c1.F[B-](F)(F)F
[3]
Settings	excess molar enthalpy [kcal/mol]
x2 = 0.0992	-0.0602 ± 0.00478
x2 = 0.1547	-0.0784 ± 0.00621
x2 = 0.1998	-0.0958 ± 0.00765
x2 = 0.3029	-0.106 ± 0.0086
x2 = 0.3978	-0.114 ± 0.00908
x2 = 0.4973	-0.112 ± 0.00908
x2 = 0.6053	-0.0946 ± 0.00765
x2 = 0.7038	-0.0803 ± 0.00645
x2 = 0.795	-0.0557 ± 0.00454
x2 = 0.8525	-0.0387 ± 0.00311
